Laboratory results from US20040102423A1, “Spironolactone and angiotensin II antagonist combination therapy for treatment of congestive heart failure” (G.D. Searle & Co., priority 1995, published 2004).

target: angiotensin II AT1 receptor; assay: Assay A: Angiotensin II binding activity, rat uterine membrane preparation, 125I-AII displacement
Protocol: Assay A: Antiotensin II Binding Activity
Compounds of the invention were tested for ability to bind to the smooth muscle angiotensin II receptor using a rat uterine membrane preparation. […] Rat uterine membranes were prepared from fresh tissue. All procedures were carried out at 4° C. Uteri were stripped of fat and homogenized in phosphate-buffered saline at pH 7.4 containing 5 mM EDTA. The homogenate was centrifuged at 1500×g for 20 min., and the supernatant was recentrifuged at 100,000×g for 60 min. The pellet was resuspended in buffer consisting of 2 mM EDTA and 50 mM Tris-HCl (pH 7.5) to a final protein concentration of 4 mg/ml. […] The reaction was initiated by the addition of membrane protein and the mixture was incubated at 25° C. for 60 min. The incubation was terminated with ice-cold 50 mM Tris-HCl (pH 7.5) and the mixture was filtered to separate membrane-bound labelled peptide from the free ligand. The incubation tube and filter were washed with ice-cold buffer. Filters were assayed for radioactivity in a Micromedic gamma counter. Nonspecific binding was defined as binding in the presence of 10 μM of unlabelled AII. Specific binding was calculated as total binding minus nonspecific binding. […] Binding data were analyzed by a nonlinear least-squares curve fitting program.

IC50 [µM] | SMILES
0.087 | CCCCc1nc(C(F)(F)CCC)nn1Cc1ccc(-c2ccccc2-c2nnn[nH]2)cc1 [Compound 21]
0.43 | CCCc1nc(CCC)n(Cc2ccc(-c3ccccc3-c3nnn[nH]3)cc2)n1 [Compound 23]
0.18 | CCCCc1nc(CCC(C)C)n(Cc2ccc(-c3ccccc3-c3nnn[nH]3)cc2)n1 [Compound 27]
0.57 | CCCCc1nc(CCC(C)C)nn1Cc1ccc(-c2ccccc2-c2nnn[nH]2)cc1 [Compound 28]
0.16 | CCCCc1ncnn1Cc1ccc(-c2ccccc2C(=O)O)cc1 [Compound 29]
0.016 | CCCCc1nc(-c2ccccc2)nn1Cc1ccc(-c2ccccc2-c2nnn[nH]2)cc1 [Compound 32]
0.63 | CCCCc1nc(-c2ccccc2)n(Cc2ccc(-c3ccccc3-c3nnn[nH]3)cc2)n1 [Compound 33]
0.64 | CCCCc1nc(C(OC)OC)n(Cc2ccc(-c3ccccc3-c3nnn[nH]3)cc2)n1 [Compound 34]
0.01 | CCCCc1nc(CN)nn1Cc1ccc(-c2ccccc2-c2nnn[nH]2)cc1 [Compound 38]
0.083 | CCCCCCCCc1nc(CCCC)n(Cc2ccc(-c3ccccc3-c3nnn[nH]3)cc2)n1 [Compound 40]
3.7 | CCCCc1nc(C(=O)CCC)nn1Cc1ccc(-c2ccccc2-c2nnn[nH]2)cc1 [Compound 41]
0.37 | CCCCc1nc(C(=O)CCC)nn1Cc1ccc(-c2ccccc2-c2nnn[nH]2)cc1 [Compound 42]
0.019 | CCCCc1nc(C)nn1Cc1ccc(-c2ccccc2-c2nnn[nH]2)cc1 [Compound 43]
0.016 | CCCCc1nc(C)n(Cc2ccc(-c3ccccc3-c3nnn[nH]3)cc2)n1 [Compound 44]
0.68 | CCCCc1nc(CC(OCC)OCC)n(Cc2ccc(-c3ccccc3-c3nnn[nH]3)cc2)n1 [Compound 48]
0.08 | CCCCc1nc(Cc2ccccc2)nn1Cc1ccc(-c2ccccc2-c2nnn[nH]2)cc1 [Compound 55]
0.005 | CCCCc1nc(CCCO)nn1Cc1ccc(-c2ccccc2-c2nnn[nH]2)cc1 [Compound 56]
0.12 | CCCCc1nc(C(F)F)n(Cc2ccc(-c3ccccc3-c3nnn[nH]3)cc2)n1 [Compound 59]
2.2 | CCCCc1nc(C=O)nn1Cc1ccc(-c2ccccc2-c2nnn[nH]2)cc1 [Compound 60]
0.11 | CCCCc1nc(C(=O)Cc2ccccc2)nn1Cc1ccc(-c2ccccc2-c2nnn[nH]2)cc1 [Compound 61]
0.012 | CCCCc1nc(C23CC4CC(CC(C4)C2)C3)n(Cc2ccc(-c3ccccc3-c3nnn[nH]3)cc2)n1 [Compound 66]
0.0086 | CCCCc1nc(CCCC2CCCCC2)n(Cc2ccc(-c3ccccc3-c3nnn[nH]3)cc2)n1 [Compound 68]
0.015 | CCCCc1nc(CCCC2CCCCC2)nn1Cc1ccc(-c2ccccc2-c2nnn[nH]2)cc1 [Compound 69]
0.044 | CCCCc1nc(CF)nn1Cc1ccc(-c2ccccc2-c2nnn[nH]2)cc1 [Compound 70]
0.57 | CCCCc1nc(CCC(=O)O)n(Cc2ccc(-c3ccccc3-c3nnn[nH]3)cc2)n1 [Compound 75]

IC50 [µM] | SMILES
0.48 | CCCCc1nn(CC(=O)c2ccccc2)c(=O)n1Cc1ccc(-c2ccccc2-c2nn[nH]n2)cc1 [Compound 93]
5.8 | CCCCc1nn(CC(O)c2ccccc2)c(=O)n1Cc1ccc(-c2ccccc2-c2nn[nH]n2)cc1 (centres unmarked) [Compound 94]
0.046 | CCCCc1nc2c(Cl)nnc(Cl)c2n1Cc1ccc(-c2ccccc2-c2nnn[nH]2)cc1 [Compound 121]
0.046 | CCCCc1nc2c(O)nnc(O)c2n1Cc1ccc(-c2ccccc2-c2nnn[nH]2)cc1 [Compound 122]
0.05 | CCCCc1nc2c(OCC)nnc(OCC)c2n1Cc1ccc(-c2ccccc2-c2nnn[nH]2)cc1 [Compound 123]
0.002 | CCCCn1nc(CCc2ccccc2)nc1Cc1ccc(-c2ccccc2-c2nnn[nH]2)cc1 [Compound 142]
0.028 | CCCCc1nc(Cc2ccc(-c3ccccc3-c3nnn[nH]3)nc2)n(CCCC)n1 [Compound 161]
0.38 | CCCCn1nc(CCc2ccccc2)nc1Cc1ccc(-c2ccccc2-c2nnn[nH]2)nc1 [Compound 162]
0.42 | CCCCn1nc(CCC)nc1Cc1ccc(-c2ccccc2-c2nnn[nH]2)nc1 [Compound 163]
1.7 | CCCCn1nc(CCc2cccs2)nc1Cc1ccc(-c2ccccc2-c2nnn[nH]2)nc1 [Compound 164]
0.09 | CCCn1nc(C(F)F)nc1Cc1ccc(-c2ccccc2-c2nnn[nH]2)nc1 [Compound 173]
0.059 | CCCCn1nc(C(=O)N(C)C(C)(C)C)nc1Cc1ccc(-c2ccccc2-c2nnn[nH]2)nc1 [Compound 182]
0.39 | CCCCn1nc(C(=O)NC)nc1Cc1ccc(-c2ccccc2-c2nnn[nH]2)nc1 [Compound 183]
0.77 | CCCCn1nc(C(OCC)OCC)nc1Cc1ccc(-c2ccccc2-c2nnn[nH]2)nc1 [Compound 187]
0.14 | CCCCn1nc(C(OCCC)OCCC)nc1Cc1ccc(-c2ccccc2-c2nnn[nH]2)nc1 [Compound 188]
0.029 | CCCCn1nc(C(OC(C)C)OC(C)C)nc1Cc1ccc(-c2ccccc2-c2nnn[nH]2)nc1 [Compound 189]
0.14 | CCCCn1nc(C2OCC(C)(C)CO2)nc1Cc1ccc(-c2ccccc2-c2nnn[nH]2)nc1 [Compound 192]
0.034 | CCCCc1nc(Cc2ccc(-c3ccccc3-c3nnn[nH]3)nc2)n(CC(C)(C)C)n1 [Compound 195]
0.031 | CCCCc1cn(CCCC)c(=O)n1Cc1ccc(-c2ccccc2-c2nnn[nH]2)nc1 [Compound 196]
0.014 | CCCc1cn(CCC)c(=O)n1Cc1ccc(-c2ccccc2-c2nnn[nH]2)nc1 [Compound 197]
0.099 | CCCCc1cn(CCC)c(=O)n1Cc1ccc(-c2ccccc2-c2nnn[nH]2)nc1 [Compound 207]
0.051 | CCCCc1cn(CC(C)(C)C)c(=O)n1Cc1ccc(-c2ccccc2-c2nnn[nH]2)nc1 [Compound 213]
0.065 | CCCCc1cn(CCC(C)(C)C)c(=O)n1Cc1ccc(-c2ccccc2-c2nnn[nH]2)nc1 [Compound 214]
0.045 | CCCCc1cn(CC(CC)CC)c(=O)n1Cc1ccc(-c2ccccc2-c2nnn[nH]2)nc1 [Compound 215]
0.009 | CCCCc1cn(C2CCCC2)c(=O)n1Cc1ccc(-c2ccccc2-c2nnn[nH]2)nc1 [Compound 218]

IC50 [µM] | SMILES
0.014 | CCCCc1cn(CC2CCCC2)c(=O)n1Cc1ccc(-c2ccccc2-c2nnn[nH]2)nc1 [Compound 219]
0.005 | CCCCc1cn(CCC2CCCC2)c(=O)n1Cc1ccc(-c2ccccc2-c2nnn[nH]2)nc1 [Compound 222]
0.091 | CCCCc1cn(C2C3CC4CC(C3)CC2C4)c(=O)n1Cc1ccc(-c2ccccc2-c2nnn[nH]2)nc1 (centres unmarked) [Compound 224]
0.16 | CCCCc1cn(C23CC4CC(CC(C4)C2)C3)c(=O)n1Cc1ccc(-c2ccccc2-c2nnn[nH]2)nc1 [Compound 225]
0.093 | CCCCc1cn(-c2ccccc2)c(=O)n1Cc1ccc(-c2ccccc2-c2nnn[nH]2)nc1 [Compound 226]
0.0036 | CCCCc1cn(CCCC)c(=O)n1Cc1ccc(-c2ccncc2-c2nnn[nH]2)cc1 [Compound 237]
0.12 | CCCCc1cn(-c2ccccc2C(C)(C)C)c(=O)n1Cc1ccc(-c2ccccc2-c2nnn[nH]2)nc1 [Compound 240]
0.11 | CCCCc1cn(-c2c(C)cccc2Cl)c(=O)n1Cc1ccc(-c2ccccc2-c2nnn[nH]2)nc1 [Compound 242]
0.25 | CCCCc1cn(-c2c(C)cc(C)cc2C)c(=O)n1Cc1ccc(-c2ccccc2-c2nnn[nH]2)nc1 [Compound 243]
0.098 | CCCCc1cn(-c2c(CC)cccc2CC)c(=O)n1Cc1ccc(-c2ccccc2-c2nnn[nH]2)nc1 [Compound 245]
0.025 | CCCCc1nc(CCCC)n(Cc2ccc(-c3ccccc3C(=O)O)nc2)n1 [Compound 251]
0.013 | CCCCc1nc(CCCC)n(Cc2ccc(-c3ccccc3-c3nnn[nH]3)nc2)n1 [Compound 252]
0.0026 | CCCCc1nc(CCCC)n(Cc2ccc(-c3cccnc3-c3nnn[nH]3)cc2)n1 [Compound 253]
0.072 | CCCCc1nc(CCCC)n(Cc2ccc(-c3ccncc3-c3nnn[nH]3)cc2)n1 [Compound 254]
0.054 | CCCCc1nc(C(F)(F)CCC)n(Cc2ccc(-c3ccccc3-c3nnn[nH]3)nc2)n1 [Compound 259]
0.22 | CCCCc1nc(CC(C)(C)C)nn1Cc1ccc(-c2ccccc2-c2nnn[nH]2)nc1 [Compound 260]
0.018 | CCCCc1nc(CC(C)(C)C)n(Cc2ccc(-c3ccccc3-c3nnn[nH]3)nc2)n1 [Compound 261]
0.057 | CCCCc1nc(CC(CC)CC)n(Cc2ccc(-c3ccccc3-c3nnn[nH]3)nc2)n1 [Compound 263]
0.011 | CCCCc1nc(CCc2ccccc2)nn1Cc1ccc(-c2ccccc2-c2nnn[nH]2)nc1 [Compound 264]
0.11 | CCCCc1nc(CCc2ccccc2)n(Cc2ccc(-c3ccccc3-c3nnn[nH]3)nc2)n1 [Compound 265]
0.29 | CCCCc1nc(C(=O)N(C)C(C)(C)C)nn1Cc1ccc(-c2ccccc2-c2nnn[nH]2)nc1 [Compound 266]
0.0097 | CCCCc1nc(C(=O)NC)n(Cc2ccc(-c3ccccc3-c3nnn[nH]3)nc2)n1 [Compound 269]
0.021 | CCCCc1nc(-c2ccccc2)nn1Cc1ccc(-c2ccccc2-c2nnn[nH]2)nc1 [Compound 270]

SMILES | IC50 [µM]
C[C@]12CCC(=O)C=C1C1CC1[C@H]1[C@@H]3CC[C@@](O)(CCC(=O)O)[C@@]3(C)CC3O[C@]312 (some centres unmarked) [Compound 8] | 17
